System: Penicillium Chrysogenom
Test: Modified Agar plate method, fungicidal activity against Penicillium spores (number of colonies)
Format: cell-based
Details: Treatment II: 1 ml solution of Captan in water at 200 ppm

In the case of `O=C1C2CC=CCC2C(=O)N1SC(Cl)(Cl)Cl` (stereo not shown) [CAPTAN, Captan], the “inhibition (observation of number of colonies)” value is reported as “total inhibition”.
